Experimental data taken from patent US20210128547A1, “AGGRESSIVE LIPID LOWERING THERAPY IN CORONARY ARTERY DISEASE” (priority 2018, published 2021).

Key:
patients with stable CAD = experiment: Randomized open-label blinded-endpoint phase 4 trial, pitavastatin 4 mg/day vs 1 mg/day (Example 1); type: in vivo, human (Japanese patients)
Procedure: This study was a prospective, multicenter, randomized, open-label, blinded-endpoint, physician-initiated phase 4 trial designed to investigate whether high-dose statin therapy could reduce CV events in patients with stable CAD as compared with low-dose statin therapy. We hypothesized that aggressive lipid lowering treatment with pitavastatin 4 mg/day would reduce the incidence of the composite endpoint comprised of CV death, non-fatal myocardial infarction (MI), non-fatal ischemic stroke, and unstable angina requiring emergency hospitalization. The control group received pitavastatin 1 mg/day.
Men and women aged 20 to 80 years with clinically evident stable CAD and elevated LDL-C were eligible for this study. CAD was defined as 1) previous ACS, such as acute myocardial infarction or unstable angina; 2) a previous coronary revascularization procedure (PCI or coronary artery bypass grafting (“CABG”)); or 3) atherosclerotic CAD detected by coronary artery angiography with at least 75% stenosis in major epicardial coronary arteries (American Heart Association classification). (30) Patients with elevated LDL-C at entry were defined as (1) patients not receiving chronic lipid-lowering therapy with LDL-C≥140 mg/dL, (2) patients with LDL-C≥100 mg/dL and considered by the attending physician to need lipid-lowering therapy, or (3) patients being treated with lipid-lowering therapy.
Exclusion criteria included (1) any planned coronary revascularization procedure, (2) active malignancy, (3) contraindication for pitavastatin (hypersensitivity to pitavastatin, severe liver disease or hepatic dysfunction, concurrent cyclosporine use, or suspected or confirmed pregnancy or current breastfeeding), (4) severe congestive heart failure (ejection fraction <30% or NYHA class ≥3), (5) current hemodialysis, (6) familial hypercholesterolemia, (7) current participation in another clinical trial, (8) current use of any prohibited drug (lipid-lowering drug other than pitavastatin) that could not be discontinued during the study, and (9) any other finding that would make the patient unsuitable for this study in the opinion of the investigators.
Participants were recruited at 733 hospitals in Japan. During screening visits, informed consent and baseline medical history were obtained, and a clinical examination and laboratory testing were performed. Blood samples were collected to determine fasting lipid levels and the patient's standard clinical profile. After discontinuation of all previous lipid-lowering therapies, all eligible patients started receiving treatment with pitavastatin 1 mg/day on an open-label basis for at least 1 month (run-in period). At the end of the run-in period (week 0), those patients with LDL-C levels below 120 mg/dL, measured by a central laboratory using Friedwald's formula, were eligible for randomization. Patients with prior ACS or coronary revascularization could be randomized beyond 3 months after the index event. Randomization was not allowed for patients with poor adherence (less than 50%) for the study drug during the run-in period or for patients with the primary endpoint events during the run-in period.
Patients were randomized in a 1:1 ratio to either pitavastatin 4 mg or pitavastatin 1 mg once daily. Randomized treatment assignment was stratified by 5 factors: 1) institution, 2) prior statin use, 3) age (<65 or ≤65), 4) diabetes, and 5) sex. Patients were to be followed for 3 years, and study visits were scheduled at 6 months for the first visit and every year thereafter. At each visit, information on vital signs, clinical endpoints, adverse events, and concurrent medication was collected. In addition, physical examinations and electrocardiograms were performed and blood specimens were collected at 6 months and every 12 months thereafter for lipid and other laboratory tests. […]

[1] = 4 mg of pitavastatin; cited from earlier work

O=C(O)C[C@H](O)C[C@H](O)/C=C/c1c(C2CC2)nc2ccccc2c1-c1ccc(F)cc1 [pitavastatin]
incidence rates of individual CV events: death from any cause, myocardial infarction, and coronary revascularization (patients with stable CAD; 1 mg and 4 mg pitavastatin groups, FIG. 8): positive
LDL-C (patients with stable CAD; patients converted from 1 mg dose to 4 mg dose of pitavastatin, FIG. 2): statistically significant reduction
HDL-C (patients with stable CAD; patients converted from 1 mg dose to 4 mg dose of pitavastatin, FIG. 3): numerically superior increase
TG (patients with stable CAD; patients converted from 1 mg dose to 4 mg dose of pitavastatin, FIG. 4): statistically significant reduction
hs-CGP (patients with stable CAD; patients converted from 1 mg dose to 4 mg dose of pitavastatin, FIG. 5): statistically significant reduction
primary clinical endpoint (composite of CV death, MI, ischemic stroke and UA) (patients with stable CAD; patients converted from 1 mg dose to 4 mg dose of pitavastatin, FIG. 6): statistically significant reduction
secondary clinical endpoint (primary endpoint+coronary revascularization) (patients with stable CAD; patients converted from 1 mg dose to 4 mg dose of pitavastatin, FIG. 7): statistically significant reduction
effect of LDL-C status (≥95 mg/dL or <95 mg/dL) on incidence rates for the primary endpoint (patients with stable CAD; subgroup analysis, 1 mg vs 4 mg pitavastatin, FIG. 9): did not affect the results
reduction of LDL-C from baseline [1]: 42.9%
